Data: a melting point compilation (Tetko et al.; mined from patent text by program, amines drawn as free bases though some values may be those of a salt)

SMILES	melting point
c1ccc2c(c1)ccn2Nc1ccncn1	81 to 85 °C
CCOC(=O)c1ccccc1Cn1c(C(=O)O)cc2ccccc21	136 °C
CCOC(=O)c1cn(C)c2nc3cc(N4CCN[C@@H](c5ccccc5)C4)c(F)cc3cc2c1=O	221 °C
COc1cc(CN2CCN(c3ccccc3F)CC2)ccc1OC(=O)N(C)C	130 to 133 °C
CC1(C)Oc2ccc(C#N)cc2[C@@H](N2CCCCC2=O)[C@@H]1O (relative stereo)	155 °C
CCCc1nc2c(N)nc3cc(OCc4cccc(Cl)c4)ccc3c2n1CC(C)C	182 to 183 °C
CCCCc1nc(SC)c(C(=O)O)n1Cc1ccc(-c2ccccc2C(=O)O)cc1	220 °C
CC(C)(C)C(=O)c1c[nH]c2ncc(N3Cc4ccccc4C3=O)nc12	287 to 289 °C
CC[C@H]1c2ccc(C#N)n2-c2cc(F)c(F)cc2N1S(=O)(=O)c1ccc(OS(N)(=O)=O)cc1	196 to 201 °C
CC(C)=CCOc1ccc(C(=O)C=Cc2ccncc2)c(O)c1	99 to 100 °C
CCCCOC(=O)C(CCc1ccccc1)NC1CSC(c2ccsc2)CN(CC(=O)O)C1=O (centres undefined)	156 °C
c1ccc(OCC2CN(Cc3nc4ccccc4[nH]3)CCO2)cc1 (racemic)	171 to 172 °C
O=C(O)Cc1ccc2c(c1)C(c1ccccc1)C(=O)O2 (centres undefined)	136 °C
C[C@@H]1c2ccccc2-c2ccc(Cl)cc2N1C(=O)c1ccc(O)cc1	274 to 276 °C
CC(=O)Nc1nc2c(Oc3cc(-c4ccc(C(F)(F)F)cc4)ncn3)cccc2o1	205 °C
CC(C)=NOc1cc(OCc2ccccc2)ccc1C#N	102 °C
Fc1cc(F)c(-c2c(Cl)nc(-n3ccnc3)nc2NCC(F)(F)F)c(F)c1	168 to 170 °C
CC1(C(=O)c2c[nH]c3ncc(-c4cccc(N5CCCC5)c4)nc23)CCCCCC1	192 to 193 °C
CNC(=O)C(NC(=O)C(CC(=O)O)N1C=CN(c2ccc(-c3ccccc3)cc2)C1)C(C)(C)C (mixture of isomers)	187 to 188 °C
NC(=O)c1cnn(-c2ncc(C(F)(F)F)cc2Cl)c1N	196 °C
CCCCC(=O)NC1CCN(CCNC(=O)c2nn(C(C)C)c3ccccc23)CC1	107 to 109 °C
CNS(=O)(=O)CCCn1cnc2c(N)nc3ccccc3c21	155 to 157 °C
COC(=O)c1ccc(C(O)COc2ccc3c(c2)C(C)(C)CCC3(C)C)cc1 (centres undefined)	92 to 96 °C
CC(C)(C)c1cc(C(=O)NCc2ccc(N)cc2)cc(C(C)(C)C)c1O	188 to 189 °C
CC(=O)OC1CCC2(C)C(=CCC3C2CCC2(C)C(OC(C)=O)CCC32)C1 (centres undefined)	163 to 165 °C

SMILES	melting point
Cc1cc(C(=O)CBr)c(C)o1	56 to 58 °C
O=C1NC(=O)c2c1c(-c1c(Cl)cccc1Cl)cc1c2c2cc(O)ccc2n1CCO	254 to 257 °C
N#CC(=Cc1ccc(O)c(O)c1)C(N)=O	247 °C
Cc1cc2c(s1)S(=O)CCc1cc(=O)n(-c3ccc(Cl)cc3)nc1-2 (centres undefined)	174 to 175 °C
Cc1cnn(C(C)(C)C(=O)N(C)C)c1-c1ccccc1	136 to 139 °C
O=C1C2CCCC(C(=O)N2Cc2ccccc2)N1Cc1ccccc1	201 to 202 °C
CCOC(=O)c1ccc(NCCOc2ccc(Br)c3ccccc23)cc1	126 to 127 °C
COC(=O)c1ccc2c(c1)Sc1ccccc1N=C2N1CCOCC1	114 to 115 °C
CC(C)(C)Nc1nc2cc(CC(=O)O)ccc2o1	175 to 176 °C
N#Cc1cccc(C2SC[C@@H](C(=O)O)N2C(=O)CCCCCC(=O)N2C(c3cccc(C#N)c3)SC[C@H]2C(=O)O)c1 (some centres undefined)	105 to 112 °C
CC(CO)n1nc(-c2cnc(N)nc2-c2ccccc2)ccc1=O (centres undefined)	222 to 223 °C
Cn1c([N+](=O)[O-])cnc1C(Cl)Cl	52 °C
COc1ccc2sc(-c3ccc(OCCN4CCCC4)cc3)cc2c1	123 to 126 °C
O=[N+]([O-])c1ccc(-c2ccc(Cl)cc2)cc1	142 to 145 °C
CC/C(=C(\c1ccc(/C=C/C(=O)O)cc1)c1ccc(OC(=O)c2ccno2)cc1)c1ccccc1	141 to 142 °C
N#Cc1ccc([N+](=O)[O-])cc1[N+](=O)[O-]	88 to 92 °C
CC(=O)NCC1CN=C(c2ccccc2)c2cc(Cl)ccc2N1 (centres undefined)	240 to 245 °C
CC(Oc1ccccc1)C(=O)NCCCCn1cnc2c(N)nc3ccccc3c21 (centres undefined)	85 to 87.5 °C
CCOC(=O)C(=CNc1ccccc1[N+](=O)[O-])C(=O)OCC	104 to 105 °C
CC1(C)Oc2ccc(C#N)cc2C(c2ccc[nH]c2=O)C1O (centres undefined)	246 to 247 °C
COc1cc(C)c(C(=O)c2c(OC)cnc(Cl)c2C(F)(F)F)c(OC)c1OC	117 to 119 °C
COC12c3ccc(Cl)cc3CC1SC(=CN)N2C (centres undefined)	65 to 70 °C
Clc1cccnc1-c1cc(OCCc2ccccn2)c2[nH]nc(Nc3cnccn3)c2c1	117 to 119 °C
Cc1cccc(C(=O)Nc2c[nH]nc2C(=O)NCCF)n1	220 to 221 °C
